From article PMC12040169 (PLOS Biology, 2025)

Assay: in vitro
Details: human, hela cells, % viability

Structure (SMILES)	viability at 28.5 h, 10 µM
O=C(CC[C@@H]1CNC(=O)[C@@H]2C[C@H](NC(=O)c3ccco3)CN12)Nc1ccccc1 [CBK289007]	91.1%
O=C(CC[C@@H]1CNC(=O)[C@@H]2C[C@H](NC(=O)c3cccc(F)c3)CN12)Nc1ccccc1 [CBK289008]	83.9%
O=C(N[C@H]1C[C@H]2C(=O)NC[C@@H](CCC(=O)N3CCOCC3)N2C1)c1cccs1 [CBK289009]	92%
O=C(N[C@H]1C[C@H]2C(=O)NC[C@@H](CCC(=O)N3CCCCC3)N2C1)c1cccs1 [CBK289010]	87.9%
O=C1NC[C@@H](CCC(=O)N2CCCCC2)N2C[C@@H](NS(=O)(=O)c3ccccc3)C[C@@H]12 [CBK289012]	92.9%
COc1ccc(C(=O)N[C@H]2C[C@H]3C(=O)NC[C@@H](CCC(=O)N4CCN(C)CC4)N3C2)cc1 [CBK289016]	90.6%
C#CCNC(=O)CC[C@H]1CNC(=O)[C@@H]2[C@@H](CCN2Cc2ccc(O)cc2)N1C [CBK289017]	94%
C#CCNC(=O)CC[C@H]1CNC(=O)[C@@H]2[C@@H](CCN2Cc2nc3ccccc3n2C)N1C [CBK289018]	102%
COC(=O)CC[C@H]1CNC(=O)[C@@H]2[C@@H](CCN2S(C)(=O)=O)N1C [CBK289019]	112%
CN1[C@@H](CCC(=O)N2CCc3ccccc32)CNC(=O)[C@@H]2[C@H]1CCN2Cc1ccc(O)cc1 [CBK289021]	88.9%
CN1CCC(N2CC[C@@H]3[C@H]2C(=O)NC[C@H](CCC(=O)NCc2ccc(F)cc2)N3C)CC1 [CBK289022]	90.6%
COc1ccc(CNC(=O)CC[C@H]2CNC(=O)[C@H]3NCC[C@H]3N2C)cc1 [CBK289025]	87.6%
CN1CCC(N2CC[C@@H]3[C@H]2C(=O)NC[C@H](CCC(=O)NCc2ccccc2)N3C)CC1 [CBK289026]	114%
CC(C)N1CC[C@@H]2[C@H]1C(=O)NC[C@H](CCC(=O)NCc1ccccc1)N2C [CBK289027]	91.7%
CN1CC[C@@H]2[C@H]1C(=O)NC[C@H](CCC(=O)NCc1cccs1)N2C [CBK289028]	115%
CN1[C@@H](CCC(=O)Nc2ccccc2)CNC(=O)[C@@H]2[C@H]1CCN2C1CCOCC1 [CBK289029]	108%
CN1[C@@H](CCC(=O)N2CCOCC2)CNC(=O)[C@@H]2[C@H]1CCN2C1CCCCC1 [CBK289032]	88.9%
C#CCNC(=O)CC[C@H]1CNC(=O)[C@@H]2[C@@H](CCN2Cc2ccc(C)cc2)N1C [CBK289036]	101%
COC[C@H]1CCCN1C(=O)CC[C@H]1CNC(=O)[C@@H]2[C@@H](CCN2C(C)C)N1C [CBK289038]	103%
COC[C@H]1CCCN1C(=O)CC[C@H]1CNC(=O)[C@@H]2[C@@H](CCN2C2CCCCC2)N1C [CBK289039]	89.7%
CN1CCC(N[C@H]2CC(C)(C)[C@@H]3C[C@@](C)(O)CC[C@]23CCC(=O)N2CCOCC2)CC1 [CBK289040]	97.2%
CC(=O)N1CCN(C(=O)C[C@@H]2C[C@@H](C(C)C)[C@H](CNC(=O)c3cccnc3)C=C2C)CC1 [CBK289046]	102%
CC1=C[C@@H](CNS(=O)(=O)c2ccccc2)[C@H](C(C)C)C[C@H]1CC(=O)N1CCOCC1 [CBK289049]	79.7%
CC1=C[C@@H](CNC(=O)c2ccncc2)[C@H](C(C)C)C[C@H]1CC(=O)N1CCOCC1 [CBK289052]	80.2%
CC1=C[C@@H](CNC(=O)c2cccnc2)[C@H](C(C)C)C[C@H]1CC(=O)N1CCOCC1 [CBK289053]	92.4%

Structure (SMILES)	viability at 28.5 h, 10 µM
CC1=C[C@@H](CNS(=O)(=O)c2ccccc2)[C@H](C(C)C)C[C@H]1CC(=O)N1CCCC1 [CBK289054]	122%
CC1=C[C@@H](CNC(=O)c2cccnc2)[C@H](C(C)C)C[C@H]1CC(=O)N1CCCC1 [CBK289055]	87.7%
CN1C(=O)COC[C@@H]1[C@H](O)c1ccc(NC(=O)C2CC2)cc1 [CBK289057]	83.1%
COCC(=O)Nc1ccc([C@@H](O)[C@H]2COCC(=O)N2C)cc1 [CBK289058]	106%
O=C(Nc1ccc([C@@H](O)[C@H]2COCC(=O)N2Cc2ccccc2F)cc1)c1cnccn1 [CBK289060]	83.2%
O=C(Nc1ccc([C@@H](O)[C@H]2COCC(=O)N2Cc2ccc(F)cc2)cc1)c1cccnc1 [CBK289062]	93.3%
CC(C)NC(=O)N1CCC[C@@H](O)[C@H](NC(=O)c2ccc(OCc3ccccc3)cc2)C1 [CBK289063]	106%
COc1ccc(C(=O)N[C@@H]2CN(Cc3ccc(CO)o3)CCC[C@H]2O)cc1 [CBK289067]	89.8%
CCNC(=O)N1CCC[C@@H](O)[C@H](NC(=O)c2ccc(OCc3c(C)noc3C)cc2)C1 [CBK289068]	84.2%
Cc1noc(C)c1COc1ccc(C(=O)N[C@@H]2CN(C(=O)NC(C)C)CCC[C@H]2O)cc1 [CBK289069]	93.1%
O=C(N[C@@H]1CNCCC[C@H]1O)c1ccc(OCCN2CCCC2)cc1 [CBK289070]	101%
COCCOc1ccc(C(=O)N[C@@H]2CNCCC[C@H]2O)cc1 [CBK289071]	94.6%
CC(=O)Nc1ccc2n(c1=O)C[C@H]1C[C@@H]2CN(C(=O)COc2ccccc2)C1 [CBK289074]	89%
COCCC(=O)N1C[C@@H]2C[C@H](C1)c1ccc(NC(=O)Nc3cccc(F)c3)c(=O)n1C2 [CBK289075]	84.6%
O=C(Nc1ccc2n(c1=O)C[C@@H]1CNC[C@H]2C1)c1ccc(F)cc1 [CBK289078]	98.4%
O=C(COc1ccccc1)Nc1ccc2n(c1=O)C[C@H]1C[C@@H]2CN(C(=O)c2ccccc2)C1 [CBK289079]	76.6%
O=C(NCc1ccco1)[C@H]1CN2CCC1C[C@@H]2Cn1cc(CO)nn1 (some centres unmarked) [CBK289080]	113%
CC(C)(C)c1cn(C[C@H]2CC3CCN2C[C@@H]3C(=O)NCc2ccc(F)cc2)nn1 (some centres unmarked) [CBK289081]	102%
O=C(NC1CCCCC1)[C@H]1CN2CCC1C[C@@H]2Cn1cc(CO)nn1 (some centres unmarked) [CBK289086]	102%
CNCc1cn(C[C@H]2CC3CCN2C[C@@H]3C(=O)N2CCCC2)nn1 (some centres unmarked) [CBK289087]	104%
Nc1cccc(-c2cn(C[C@H]3CC4CCN3C[C@@H]4C(=O)NCc3cccnc3)nn2)c1 (some centres unmarked) [CBK289088]	84.3%
CN(C)C(=O)[C@H]1CN2CCC1C[C@@H]2Cn1cc(CCO)nn1 (some centres unmarked) [CBK289089]	89.9%
CC(C)NC(=O)[C@H]1CN2CCC1C[C@@H]2Cn1cc(C2(O)CCCC2)nn1 (some centres unmarked) [CBK289090]	103%
O=C(Nc1ccccc1)[C@H]1CN2CCC1C[C@@H]2Cn1cc(C2(O)CCCC2)nn1 (some centres unmarked) [CBK289091]	103%
O=C(NC1CC1)[C@H]1CN2CCC1C[C@@H]2Cn1cc(C2(O)CCCC2)nn1 (some centres unmarked) [CBK289092]	82.1%

Structure (SMILES)	viability at 28.5 h, 10 µM
Cn1nc(-c2ccccc2)cc1[C@H]1CN2CC[C@H]1C[C@@H]2CNC(=O)N1CCOCC1 [CBK289094]	113%
Cn1nc(-c2ccccc2)cc1[C@H]1CN2CC[C@H]1C[C@@H]2CNS(C)(=O)=O [CBK289096]	99.2%
CC(C)NC(=O)NC[C@H]1C[C@@H]2CCN1C[C@@H]2c1cc(-c2ccccc2)nn1C [CBK289097]	84.5%
Cn1nc(-c2cccs2)cc1[C@H]1CN2CC[C@H]1C[C@@H]2CNC(=O)c1ccco1 [CBK289100]	86.6%
CCCS(=O)(=O)NC[C@H]1C[C@@H]2CCN1C[C@@H]2c1cc(-c2cccs2)nn1C [CBK289101]	98.4%
CC(C)NC(=O)NC[C@H]1C[C@@H]2CCN1C[C@@H]2c1cc(C2CCCCC2)nn1C [CBK289107]	90.8%
Cn1nc(-c2ccc(F)cc2)cc1[C@H]1CN2CC[C@H]1C[C@@H]2CNS(C)(=O)=O [CBK289109]	98.8%
CC(C)NC(=O)NC[C@H]1C[C@@H]2CCN1C[C@@H]2c1cc(-c2ccc(F)cc2)nn1C [CBK289111]	88.5%
O=C(NC[C@H]1C[C@@H]2CC[N@]1C[C@@H]2CN1CCN(c2ncccn2)CC1)c1ccco1 [CBK289115]	88.1%
CC(C)NC(=O)NC[C@H]1C[C@@H]2CC[N@]1C[C@@H]2CN1CCN(c2ncccn2)CC1 [CBK289116]	89.7%
O=C(NC[C@H]1C[C@@H]2CC[N@]1C[C@@H]2CN1CCN(c2ncccn2)CC1)Nc1ccsc1 [CBK289117]	90.3%
CCC(CC)c1cc([C@H]2CN3CC[C@H]2C[C@@H]3CO)nc(-c2ccncc2)n1 [CBK289118]	100%
Cc1nc(C2CCCC2)cc([C@H]2CN3CC[C@H]2C[C@@H]3CNS(C)(=O)=O)n1 [CBK289121]	87.6%
CCNC(=O)NC[C@H]1C[C@@H]2CCN1C[C@@H]2c1cc(C2CCCC2)nc(C)n1 [CBK289122]	81.6%
Cc1nc(-c2ccccc2)cc([C@H]2CN3CC[C@H]2C[C@@H]3CNS(C)(=O)=O)n1 [CBK289124]	114%
Cc1nc(-c2ccccc2)cc([C@H]2CN3CC[C@H]2C[C@@H]3CNC(=O)NC(C)C)n1 [CBK289126]	89.9%
Cc1nc(-c2cccs2)cc([C@H]2CN3CC[C@H]2C[C@@H]3CNC(=O)c2ccco2)n1 [CBK289127]	86.9%
CC(=O)NC[C@H]1C[C@@H]2CCN1C[C@@H]2c1cc(-c2ccco2)nc(C)n1 [CBK289128]	102%
CC(=O)N1CCC(NC[C@H]2C[C@@H]3CCN2C[C@@H]3c2cc(C3CCCC3)nc(C)n2)CC1 [CBK289129]	84.3%
CC[C@H]1CN(C(C)=O)CC[C@H]1CC(=O)Nc1nccs1 [CBK289130]	97.8%
CC[C@H]1CN(C(C)=O)CC[C@H]1CC(=O)NCc1ccc2c(c1)OCO2 [CBK289131]	89.2%
CC[C@H]1CN(C(=O)C2CC2)CC[C@H]1CC(=O)NCc1ccc2c(c1)OCO2 [CBK289133]	91.9%
CC[C@H]1CN(C(=O)C(C)(C)C)CC[C@H]1CC(=O)NCc1cccnc1 [CBK289135]	97.8%
C=CCNC(=O)C[C@@H]1CCN(C(=O)c2ccnc(Cl)c2)C[C@@H]1CC [CBK289136]	94.3%
